Test results as given in US8017612B2, “Piperazine compound and use thereof as a HCV polymerase inhibitor” (priority 2006, dated 2011).
pIC50: −log10 of the molar value.

Legend:
[1] = biological target: T1, HCV polymerase (NS5B) type 1b (Hepatitis C virus genotype 1b, UniProt P26663); experiment: Assay of enzyme (HCV polymerase) inhibitory activity, type 1b enzyme; assay type: biochemical, HCV BK strain (type 1b)
T1 construct: a region encoding NS5B (J Virol 1991 March, 65(3), 1105-13, 544 amino acids after deletion of 47 amino acids on the C-terminal); 6xHis (C); made in house; host or cells: Escherichia coli
Text: (§1) The evaluation of the HCV polymerase inhibitory activity of the compound of the present invention is explained in the following. This polymerase is an enzyme coded for by the non-structural protein region called NS5B on the genome RNA of HCV.
(§2) i) Preparation of Enzyme (HCV Polymerase)
(§3) Using, as a template, a cDNA clone corresponding to the full length genome RNA of HCV BK strain (type 1b) obtained from the blood of a patient with hepatitis C, a region encoding NS5B (J Virol 1991 March, 65(3), 1105-13, 544 amino acids after deletion of 47 amino acids on the C-terminal) was amplified by PCR. The objective gene was prepared by adding a 6 His tag {base pair encoding 6 continuous histidine (His)} to the 3′ end thereof and transformed to Escherichia coli. The Escherichia coli capable of producing the objective protein was cultured. The obtained cells were suspended in a buffer solution and crushed in a microfluidizer. The supernatant was obtained by centrifugation and applied to various column chromatographys {mono-S, Sephacryl S-200 (Pharmacia)}, inclusive of metal chelate chromatography, to give a standard enzyme product.
(§4) ii) Synthesis of Substrate RNA
(§5) Using a synthetic primer designed based on the sequence of HCV genomic 3′ untranslated region, a DNA fragment (148 bp) containing polyU and 3′X sequence was entirely synthesized and cloned into plasmid pBluescript SK II(+) (Stratagene). The cDNA encoding full length NS5B, which was prepared in i) above, was digested with restriction enzyme KpnI to give a cDNA fragment containing the nucleotide sequence of from the restriction enzyme cleavage site to the termination codon. This cDNA fragment was inserted into the upstream of 3′ untranslated region of the DNA in pBluescript SK II(+) and ligated. The about 450 bp inserted DNA sequence was used as a template in the preparation of substrate RNA. This plasmid was cleaved immediately after the 3′X sequence, linearized and purified by phenol-chloroform treatment and ethanol precipitation to give DNA.
(§6) RNA was synthesized (37° C., 4 hr) by run-off method using this purified DNA as a template, a promoter of pBluescript SK II(+), MEGAscript RNA synthesis kit (Ambion) and T7 RNA polymerase. DNase I was added and the mixture was incubated for 1 hr. The template DNA was removed by decomposition to give a crude RNA product. This crude product was treated with phenol-chloroform and purified by ethanol precipitation to give the objective substrate RNA.
(§7) This RNA was applied to urea denaturation polyacrylamide gel electrophoresis to confirm the quality thereof and preserved at −80° C.
(§8) iii) Assay of Enzyme (HCV Polymerase) inhibitory activity
(§9) A test substance (compound of the present invention) and a reaction mixture (30 μl) having the following composition were reacted at 25° C. for 60 min.
(§10) 10% Trichloroacetic acid and 1% sodium pyrophosphate solution (150 μl) at 4° C. was added to this reaction mixture to stop the reaction. The reaction mixture was left standing at 4° C. for 15 min to insolubilize RNA. This RNA was trapped on a glass filter (PerkinElmer, GF/B) upon filtration by suction. This filter was washed with a solution containing 1% trichloroacetic acid and 0.1% sodium pyrophosphate, washed with 90% ethanol and dried. A liquid scintillation cocktail (PerkinElmer) was added and the radioactivity of RNA synthesized by the enzyme reaction was measured on a liquid scintillation counter.
The HCV polymerase inhibitory activity (IC50) of the compound of the present invention was calculated from the values of radioactivity of the enzyme reaction with and without the test substance.
Reaction mixture: HCV polymerase (type 1b 0.5 μg/ml or type 1a 1.5 μg/m) obtained in i), substrate RNA (5 μg/ml) obtained in ii), ATP (50 μM), GTP (50 μM), CTP (50 μM), UTP (2 μM), [5,6-^3H]UTP (30-60 Ci/mmol (Amersham Biosciences), 1 μCi) 20 mM Tris-HCl (pH 7.5), EDTA (1 mM), MgCl2 (5 mM), NaCl (50 mM), DTT (1 mM), BSA (0.01%)

[2] = biological target: T2, HCV polymerase (NS5B) type 1a (Hepatitis C virus genotype 1a, UniProt P26664); experiment: Assay of enzyme (HCV polymerase) inhibitory activity, type 1a enzyme; assay type: biochemical, HCV type 1a (cloned from the blood of patients)
T2 construct: made in house; host or cells: Escherichia coli (by the 'similar method' of the 1b enzyme)
Text: as §1, §2, §3
Standard enzyme products for type 1a (cloned from the blood of patients) were also obtained by a similar method.
as §4, §5, §6, §7, §8, §9, §10
The HCV polymerase inhibitory activity (IC50) of the compound of the present invention was calculated from the values of radioactivity of the enzyme reaction with and without the test substance. […]

[3] = HCV polymerase inhibitory activity (IC50), 1b, type 1b enzyme 0.5 μg/ml, 25° C., 60 min
[4] = HCV polymerase inhibitory activity (IC50), 1a, type 1a enzyme 1.5 μg/ml, 25° C., 60 min
[5] = HCV polymerase inhibitory activity IC50, 1b, type 1b enzyme
[6] = HCV polymerase inhibitory activity IC50, 1a, type 1a enzyme

Row | Compound | pIC50 [1, 3] | pIC50 [2, 4] | pIC50 [1, 5] | pIC50 [2, 6]
1 | COC(=O)CCOc1ccc(S(=O)(=O)N2CCN(C(C)=O)C[C@@H]2C(=O)NCc2ccc(C(C)C)cc2)cc1 [Example 250, 3-{4-[(R)-4-acetyl-2-(4-isopropyl-benzylcarbamoyl)-piperazine-1-sulfonyl]-phenoxy}-propionic acid methyl ester] | 6.00 to 7.00 | 6.00 to 7.00 | – | –
2 | N#Cc1ncc2sc(N3CCN(S(=O)(=O)c4ccc(OC(F)(F)F)cc4)[C@@H](C(=O)NCc4ccc(OC(F)(F)F)cc4)C3)nc2n1 [Example 964, (R)-4-(5-cyano-thiazolo[4,5-d]pyrimidin-2-yl)-1-(4-trifluoromethoxy-benzenesulfonyl)-piperazine-2-carboxylic acid 4-trifluoromethoxy-benzylamide] | – | – | > 7.00 | > 7.00
3 | CC(C)c1ccc(CNC(=O)[C@H]2CN(C3CCNC3=O)CCN2S(=O)(=O)c2ccc(C(F)(F)F)cc2)cc1 (stereo partly drawn) [Example 345, (R)-4-(2-oxo-pyrrolidin-3-yl)-1-(4-trifluoromethyl-benzenesulfonyl)-piperazine-2-carboxylic acid 4-isopropyl-benzylamide] | 6.00 to 7.00 | < 6.00 | – | –
4 | CCC(F)(F)c1ccc(CNC(=O)[C@H]2CN(c3cnc4cncnc4n3)CCN2S(=O)(=O)c2ccc3c(c2)CCC(CC(=O)O)CC3)cc1 (stereo partly drawn) [Example 729, (2-{(R)-2-[4-(1,1-difluoro-propyl)-benzylcarbamoyl]-4-pteridin-7-yl-piperazine-1-sulfonyl}-6,7,8,9-tetrahydro-5H-benzocyclohepten-7-yl)-acetic acid] | – | – | > 7.00 | > 7.00
5 | CCC(F)(F)c1ccc(CNC(=O)[C@H]2CN(C(=O)Nc3cc(C)ns3)CCN2S(=O)(=O)c2ccc(OC(F)(F)F)cc2)cc1 [Example 553, (R)-4-(4-trifluoromethoxy-benzenesulfonyl)-piperazine-1,3-dicarboxylic acid 3-[4-(1,1-difluoro-propyl)-benzylamide] 1-[(3-methyl-isothiazol-5-yl)-amide]] | > 7.00 | > 7.00 | – | –
6 | CC(C)c1ccc(CNC(=O)[C@H]2CN(c3ccc(C(=O)OC(C)(C)C)cn3)CCN2S(=O)(=O)c2ccc(C(F)(F)F)cc2)cc1 [Example 326, 6-[(R)-3-(4-isopropyl-benzylcarbamoyl)-4-(4-trifluoromethyl-benzenesulfonyl)-piperazin-1-yl]-nicotinic acid tert-butyl ester] | 6.00 to 7.00 | 6.00 to 7.00 | – | –
7 | COc1cccc(CC(=O)N2CCN(S(=O)(=O)c3ccc(C(F)(F)F)cc3)[C@@H](C(=O)NCc3ccc(C(C)C)cc3)C2)c1 [Example 268, (R)-4-[2-(3-methoxy-phenyl)-acetyl]-1-(4-trifluoromethyl-benzenesulfonyl)-piperazine-2-carboxylic acid 4-isopropyl-benzylamide] | 6.00 to 7.00 | < 6.00 | – | –
8 | CCC(F)(F)c1ccc(CNC(=O)[C@H]2CN(C(=O)Nc3cc(C)on3)CCN2S(=O)(=O)c2ccc(OC(F)(F)F)cc2)cc1 [Example 526, (R)-4-(4-trifluoromethoxy-benzenesulfonyl)-piperazine-1,3-dicarboxylic acid 3-[4-(1,1-difluoro-propyl)-benzylamide] 1-[(5-methyl-isoxazol-3-yl)-amide]] | 6.00 to 7.00 | 6.00 to 7.00 | – | –
9 | CCC(F)(F)c1ccc(CNC(=O)[C@H]2CN(c3cnc(C#N)cn3)CCN2S(=O)(=O)c2ccc(OC(F)(F)F)cc2)cc1 [Example 591, (R)-5′-cyano-4-(4-trifluoromethoxy-benzenesulfonyl)-3,4,5,6-tetrahydro-2H-[1,2′]bipyrazinyl-3-carboxylic acid 4-(1,1-difluoro-propyl)-benzylamide] | > 7.00 | > 7.00 | – | –
10 | CCCc1ccc(CNC(=O)[C@H]2CN(c3nc(C)c(C(=O)O)s3)CCN2S(=O)(=O)c2ccc(OC(F)(F)F)cc2F)cc1 [Example 14, 2-[(R)-4-(2-fluoro-4-trifluoromethoxy-benzenesulfonyl)-3-(4-propyl-benzylcarbamoyl)-piperazin-1-yl]-4-methyl-thiazole-5-carboxylic acid] | > 7.00 | > 7.00 | – | –
11 | CCCc1ccc(CNC(=O)[C@H]2CN(c3cnc4cncc(Br)c4n3)CCN2S(=O)(=O)c2ccc(CC)cc2)cc1 [Example 813, (R)-4-(8-bromo-pyrido[3,4-b]pyrazin-2-yl)-1-(4-ethyl-benzenesulfonyl)-piperazine-2-carboxylic acid 4-propyl-benzylamide] | – | – | > 7.00 | > 7.00
12 | CC(=O)N1CCN(S(=O)(=O)c2ccc(CC(=O)O)s2)[C@@H](C(=O)NCc2ccc(C(C)C)cc2)C1 [Example 289, {5-[(R)-4-acetyl-2-(4-isopropyl-benzylcarbamoyl)-piperazine-1-sulfonyl]-thiophen-2-yl}-acetic acid] | < 6.00 | < 6.00 | – | –
13 | CC(C)c1ccc(CNC(=O)[C@H]2CN(C(=O)Nc3cccc(C(=O)O)c3)CCN2S(=O)(=O)c2ccc(C(F)(F)F)cc2)cc1 [Example 286, 3-{[(R)-3-(4-isopropyl-benzylcarbamoyl)-4-(4-trifluoromethyl-benzenesulfonyl)-piperazine-1-carbonyl]-amino}-benzoic acid] | 6.00 to 7.00 | 6.00 to 7.00 | – | –
14 | COC(=O)Cc1cc(S(=O)(=O)N2CCN(C(C)=O)C[C@@H]2C(=O)NCc2ccc(C(C)C)cc2)ccc1OC [Example 217, {5-[(R)-4-acetyl-2-(4-isopropyl-benzylcarbamoyl)-piperazine-1-sulfonyl]-2-methoxy-phenyl}-acetic acid methyl ester] | < 6.00 | < 6.00 | – | –
15 | Cc1nc(N2CCN(S(=O)(=O)c3ccc(C(F)(F)F)cc3)[C@@H](C(=O)NCc3ccc(C(C)C)cc3)C2)sc1C(N)=O [Example 7, (R)-4-(5-carbamoyl-4-methyl-thiazol-2-yl)-1-(4-trifluoromethyl-benzenesulfonyl)-piperazine-2-carboxylic acid 4-isopropyl-benzylamide] | > 7.00 | > 7.00 | – | –
16 | CC(=O)N1CCN(S(=O)(=O)c2ccc(C(C)C)cc2)C(C(=O)NCc2ccc(Cl)cc2Cl)C1 (stereo not shown) [Example 101, 4-acetyl-1-(4-isopropyl-benzenesulfonyl)-piperazine-2-carboxylic acid 2,4-dichloro-benzylamide] | < 6.00 | < 6.00 | – | –
17 | CCC(F)(F)c1ccc(CNC(=O)[C@H]2CN(C(=O)Cc3cn(C)cn3)CCN2S(=O)(=O)c2ccc(OC(F)(F)F)cc2)cc1 [Example 498, (R)-4-[2-(1-methyl-1H-imidazol-4-yl)-acetyl]-1-(4-trifluoromethoxy-benzenesulfonyl)-piperazine-2-carboxylic acid 4-(1,1-difluoro-propyl)-benzylamide] | 6.00 to 7.00 | 6.00 to 7.00 | – | –
